Here are results for 6 compounds from paper PMC7306133 (Diabetes, 2020).

The IC50 is the midpoint of a concentration-inhibition curve. A lower IC50 goes with inhibition by little substance.

Where a SMILES comes first, the peptide text is derived from it. Where no end group is shown, it is not given here.

The target in experiment [1] is HLA-DRB1*04:01 (DR0401) protein (Homo sapiens, UniProt P01903+P01911, A100K/A169T/F76Y/I96L/K127E/L162R/M171V/N62H/P40V/Q125Y/R42H/S133A/S149N/S66Y/V115G/V209L/W38E). Kind of experiment: DR0401 peptide binding competition assay.
In experiment [2] the test system is CD4+ T cells in peripheral blood of subjects with T1D. Kind of experiment: Ex vivo tetramer analysis of T-cell frequency. Type of experiment: cell-based, human. The note with it: DR0401 tetramers, ex vivo enrichment.
For experiment [3], the system named is HIP-specific T-cell clones. Kind of experiment: Proliferation of HIP-specific T-cell clones in response to human islet fractions. Type of experiment: cell-based. The note with it: label = specificity of the clone; compared with the unpulsed control condition.

Compound HLVEALYLEELVARSE [HIP-4.2] came in with an IC50 in experiment [1] of 440 nM. CSLYQLENSVPHFSDE [HIP-4.39] showed a half-maximal inhibitory concentration (IC50) in experiment [1] of 240 nM. Still for that read-out and setting: next, SLQKRGIVEELVARSE [HIP-4.18]: 1800 nM. `CC[C@H](C)[C@H](N)C(=O)N[C@@H](CS)C(=O)N[C@@H](CO)C(=O)N[C@@H](CC(C)C)C(=O)N[C@@H](Cc1ccc(O)cc1)C(=O)N[C@@H](CCC(N)=O)C(=O)N[C@@H](CC(C)C)C(=O)N[C@@H](CCC(=O)O)C(=O)N[C@@H](Cc1ccccc1)C(=O)N[C@H](C(=O)N[C@@H](CC(N)=O)C(=O)N[C@@H](CCC(N)=O)C(=O)N[C@@H](Cc1c[nH]cn1)C(=O)N[C@@H](CC(C)C)C(=O)N[C@@H](CS)C(=O)NCC(=O)O)C(C)C` [HIP-4.4] (H-ICSLYQLEFVNQHLCG-OH; N-terminus and C-terminus assumed): in experiment [2], the “Average frequency of HIP-reactive T cells” value was 8 cells per million CD4+ T cells. Also, in experiment [3], the “Proliferation of the HIP-reactive clone in response to human islets (in words)” value is “not above the unpulsed control condition”. In experiment [1], VCGERGFFEELVARSE [HIP-4.1] returned an IC50 of 2800 nM. This lies in the single-digit micromolar range.

Turning to QPLALEGSALSSQHQA [HIP-4.40], in experiment [1], the IC50 was found to be 2400 nM.
